Test system: 30 clinical strains of M. tuberculosis isolated from patients in Thailand
Assay: Microplate Alamar Blue assay, clinical strains
Type: cell-based
Details: Mycobacterium tuberculosis, including isoniazid and/or rifampin resistant strains, read-out: MICs against clinical strains of M. tuberculosis

Work on `C=CC(OC(C)=O)c1ccc(OC(C)=O)cc1` (stereo not shown) [1′-acetoxychavicol acetate, 1′-Acetoxychavicol acetate] yielded an MIC of 0.1 to 0.5 µg/mL.

From US20020192262A1, “1'-Acetoxychavicol acetate for tuberculosis treatment” (National Science and Technology Development Agency, priority 2001, published 2002)
